The record followed here is ChEMBL document CHEMBL3580597 (J Med Chem, 2015).

Some results are limits rather than exact numbers.

Test [1] has as its system K562. Description: cells. The test is classed as functional, cell-based. As to conditions: Homo sapiens, K562, 96 h.
For test [2], the target named is T1, Bromodomain-containing protein 3 (Homo sapiens, UniProt Q15059). As to the kind of experiment: Displacement of FAM-labeled ZBA248 from BRD3 BD1 (24 to 144 amino acid residues) (unknown origin) expressed in Rosetta2 DE3 cells after 30 mins by fluorescence polarization assay. In general terms: Polarisation of emitted light reports the rotation of a fluorescent probe.

In test [3] the target is T1, Bromodomain-containing protein 3. Description: Binding affinity to biotinylated BRD3 BD2 (306 to 417 amino acid residues) (unknown origin) expressed in Rosetta2 DE3 cells by bio-layer interferometry method.
For test [4], the target named is T2, ATPase family AAA domain-containing protein 2 (Homo sapiens, UniProt Q6PL18).
T2 sequence (Q6PL18 whole entry): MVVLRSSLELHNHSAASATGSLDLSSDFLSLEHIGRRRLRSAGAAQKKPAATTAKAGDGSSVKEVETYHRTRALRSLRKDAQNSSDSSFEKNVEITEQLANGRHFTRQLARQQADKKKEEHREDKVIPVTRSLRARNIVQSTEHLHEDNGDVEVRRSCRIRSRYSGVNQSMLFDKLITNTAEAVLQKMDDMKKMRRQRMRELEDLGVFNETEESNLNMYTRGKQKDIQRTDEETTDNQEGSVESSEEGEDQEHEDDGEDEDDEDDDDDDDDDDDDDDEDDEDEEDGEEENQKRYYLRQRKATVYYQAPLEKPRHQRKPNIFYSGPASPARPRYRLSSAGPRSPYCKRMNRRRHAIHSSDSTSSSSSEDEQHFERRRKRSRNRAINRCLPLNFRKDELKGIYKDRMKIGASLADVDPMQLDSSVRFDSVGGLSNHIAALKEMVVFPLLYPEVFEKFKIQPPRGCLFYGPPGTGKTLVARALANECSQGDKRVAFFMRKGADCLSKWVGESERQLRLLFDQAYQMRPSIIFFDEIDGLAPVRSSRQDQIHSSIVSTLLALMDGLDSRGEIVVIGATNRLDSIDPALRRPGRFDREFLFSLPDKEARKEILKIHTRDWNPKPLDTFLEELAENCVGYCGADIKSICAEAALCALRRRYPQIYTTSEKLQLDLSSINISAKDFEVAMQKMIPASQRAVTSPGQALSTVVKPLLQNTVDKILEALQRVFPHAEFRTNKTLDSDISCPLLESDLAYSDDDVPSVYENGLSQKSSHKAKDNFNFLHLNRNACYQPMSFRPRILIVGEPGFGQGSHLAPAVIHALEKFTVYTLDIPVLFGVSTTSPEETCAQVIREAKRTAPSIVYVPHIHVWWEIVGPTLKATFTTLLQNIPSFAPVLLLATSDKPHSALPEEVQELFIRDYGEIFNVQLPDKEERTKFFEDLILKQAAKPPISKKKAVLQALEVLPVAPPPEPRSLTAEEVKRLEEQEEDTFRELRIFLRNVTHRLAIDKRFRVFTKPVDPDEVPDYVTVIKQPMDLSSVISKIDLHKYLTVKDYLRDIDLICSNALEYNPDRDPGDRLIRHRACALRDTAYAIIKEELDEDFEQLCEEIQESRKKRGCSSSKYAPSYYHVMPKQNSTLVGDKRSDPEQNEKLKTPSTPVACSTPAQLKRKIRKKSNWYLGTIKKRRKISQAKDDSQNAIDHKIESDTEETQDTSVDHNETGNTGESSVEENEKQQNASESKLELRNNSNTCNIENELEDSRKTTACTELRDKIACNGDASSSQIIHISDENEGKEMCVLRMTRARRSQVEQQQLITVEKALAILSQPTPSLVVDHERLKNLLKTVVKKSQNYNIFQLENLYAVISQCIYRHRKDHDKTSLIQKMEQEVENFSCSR
Description: Binding affinity to biotinylated ATAD2A (981 to 1108 amino acid residues) (unknown origin) expressed in Rosetta2 DE3 cells by bio-layer interferometry method. A general note: BLI is a label-free optical method that tracks binding on a fibre tip over time.

Test [5] deals with CREB-binding protein (Homo sapiens, UniProt Q92793). Description: Binding affinity to biotinylated CREBBP (1043 to 1159 amino acid residues) (unknown origin) expressed in Rosetta2 DE3 cells by bio-layer interferometry method.
Test [6] has as its target T1, Bromodomain-containing protein 3. As to the kind of experiment: biochemical. Format: cell-based.
Test [7] concerns MV4-11. As to the kind of experiment: cells. As to conditions: Homo sapiens, MV4-11, 96 h. The test is classed as functional, cell-based.
The target in test [8] is T1, Bromodomain-containing protein 3. Description: Displacement of FAM-labeled ZBA248 from BRD3 BD2 (306 to 417 amino acid residues) (unknown origin) expressed in Rosetta2 DE3 cells after 30 mins by fluorescence polarization assay.
In test [9] the target is T3, Bromodomain-containing protein 4 (Homo sapiens, UniProt O60885). Description: Displacement of FAM-labeled ZBA248 from BRD4 BD1 (44 to 168 amino acid residues) (unknown origin) expressed in Rosetta2 DE3 cells after 30 mins by fluorescence polarization assay.
Test [10] has as its target T3, Bromodomain-containing protein 4. Description: Displacement of FAM-labeled ZBA248 from BRD4 BD2 (333 to 460 amino acid residues) (unknown origin) expressed in Rosetta2 DE3 cells after 30 mins by fluorescence polarization assay.
The target of test [11] is T4, Bromodomain-containing protein 2 (Homo sapiens, UniProt P25440). As to the kind of experiment: Displacement of FAM-labeled ZBA248 from BRD2 BD1 (72 to 205 amino acid residues) (unknown origin) expressed in Rosetta2 DE3 cells after 30 mins by fluorescence polarization assay.
For test [12], the target named is T4, Bromodomain-containing protein 2. As to the kind of experiment: Displacement of FAM-labeled ZBA248 from BRD2 BD2 (349 to 460 amino acid residues) (unknown origin) expressed in Rosetta2 DE3 cells after 30 mins by fluorescence polarization assay.

T1 sequence (Q15059 whole entry, the tested form may be a part): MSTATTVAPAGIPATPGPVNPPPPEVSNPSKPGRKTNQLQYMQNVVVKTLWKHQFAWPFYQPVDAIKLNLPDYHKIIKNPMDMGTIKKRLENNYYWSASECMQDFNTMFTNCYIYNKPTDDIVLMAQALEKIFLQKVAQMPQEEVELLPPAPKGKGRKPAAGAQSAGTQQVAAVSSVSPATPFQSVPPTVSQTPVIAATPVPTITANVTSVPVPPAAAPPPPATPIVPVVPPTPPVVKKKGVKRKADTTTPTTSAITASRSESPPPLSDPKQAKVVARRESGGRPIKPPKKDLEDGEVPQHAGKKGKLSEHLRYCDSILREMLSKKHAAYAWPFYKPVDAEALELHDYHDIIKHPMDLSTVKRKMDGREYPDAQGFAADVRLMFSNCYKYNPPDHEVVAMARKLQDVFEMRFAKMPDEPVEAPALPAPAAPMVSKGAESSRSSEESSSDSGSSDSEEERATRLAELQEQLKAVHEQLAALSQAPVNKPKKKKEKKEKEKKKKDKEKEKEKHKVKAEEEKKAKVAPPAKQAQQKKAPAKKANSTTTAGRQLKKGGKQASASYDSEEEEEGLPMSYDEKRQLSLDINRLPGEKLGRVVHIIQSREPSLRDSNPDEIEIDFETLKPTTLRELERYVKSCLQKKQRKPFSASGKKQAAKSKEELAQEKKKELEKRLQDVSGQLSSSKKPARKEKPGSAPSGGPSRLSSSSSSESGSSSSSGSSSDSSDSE
T4 sequence (P25440 whole entry, the tested form may be a part): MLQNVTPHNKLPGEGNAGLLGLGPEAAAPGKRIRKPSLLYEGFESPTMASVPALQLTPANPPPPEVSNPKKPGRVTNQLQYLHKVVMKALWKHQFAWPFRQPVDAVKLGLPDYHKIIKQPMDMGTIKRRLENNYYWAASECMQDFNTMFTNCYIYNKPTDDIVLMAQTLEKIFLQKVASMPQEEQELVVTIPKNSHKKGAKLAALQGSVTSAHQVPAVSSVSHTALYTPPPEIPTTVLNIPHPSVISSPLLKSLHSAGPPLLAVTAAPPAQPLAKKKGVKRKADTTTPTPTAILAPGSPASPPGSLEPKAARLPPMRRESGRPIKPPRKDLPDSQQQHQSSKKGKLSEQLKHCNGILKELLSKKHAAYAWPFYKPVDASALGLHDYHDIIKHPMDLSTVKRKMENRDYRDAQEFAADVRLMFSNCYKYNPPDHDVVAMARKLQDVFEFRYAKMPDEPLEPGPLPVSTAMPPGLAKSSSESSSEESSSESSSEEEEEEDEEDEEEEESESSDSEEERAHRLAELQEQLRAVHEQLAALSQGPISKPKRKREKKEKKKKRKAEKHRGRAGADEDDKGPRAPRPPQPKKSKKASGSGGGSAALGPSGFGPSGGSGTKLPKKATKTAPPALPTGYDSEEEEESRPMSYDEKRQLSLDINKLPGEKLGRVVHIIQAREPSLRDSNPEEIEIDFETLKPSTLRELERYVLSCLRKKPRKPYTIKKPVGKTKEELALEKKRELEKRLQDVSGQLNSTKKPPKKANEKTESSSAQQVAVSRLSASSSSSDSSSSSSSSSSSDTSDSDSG
CREB-binding protein, sequence (Q92793 whole entry, the tested form may be a part): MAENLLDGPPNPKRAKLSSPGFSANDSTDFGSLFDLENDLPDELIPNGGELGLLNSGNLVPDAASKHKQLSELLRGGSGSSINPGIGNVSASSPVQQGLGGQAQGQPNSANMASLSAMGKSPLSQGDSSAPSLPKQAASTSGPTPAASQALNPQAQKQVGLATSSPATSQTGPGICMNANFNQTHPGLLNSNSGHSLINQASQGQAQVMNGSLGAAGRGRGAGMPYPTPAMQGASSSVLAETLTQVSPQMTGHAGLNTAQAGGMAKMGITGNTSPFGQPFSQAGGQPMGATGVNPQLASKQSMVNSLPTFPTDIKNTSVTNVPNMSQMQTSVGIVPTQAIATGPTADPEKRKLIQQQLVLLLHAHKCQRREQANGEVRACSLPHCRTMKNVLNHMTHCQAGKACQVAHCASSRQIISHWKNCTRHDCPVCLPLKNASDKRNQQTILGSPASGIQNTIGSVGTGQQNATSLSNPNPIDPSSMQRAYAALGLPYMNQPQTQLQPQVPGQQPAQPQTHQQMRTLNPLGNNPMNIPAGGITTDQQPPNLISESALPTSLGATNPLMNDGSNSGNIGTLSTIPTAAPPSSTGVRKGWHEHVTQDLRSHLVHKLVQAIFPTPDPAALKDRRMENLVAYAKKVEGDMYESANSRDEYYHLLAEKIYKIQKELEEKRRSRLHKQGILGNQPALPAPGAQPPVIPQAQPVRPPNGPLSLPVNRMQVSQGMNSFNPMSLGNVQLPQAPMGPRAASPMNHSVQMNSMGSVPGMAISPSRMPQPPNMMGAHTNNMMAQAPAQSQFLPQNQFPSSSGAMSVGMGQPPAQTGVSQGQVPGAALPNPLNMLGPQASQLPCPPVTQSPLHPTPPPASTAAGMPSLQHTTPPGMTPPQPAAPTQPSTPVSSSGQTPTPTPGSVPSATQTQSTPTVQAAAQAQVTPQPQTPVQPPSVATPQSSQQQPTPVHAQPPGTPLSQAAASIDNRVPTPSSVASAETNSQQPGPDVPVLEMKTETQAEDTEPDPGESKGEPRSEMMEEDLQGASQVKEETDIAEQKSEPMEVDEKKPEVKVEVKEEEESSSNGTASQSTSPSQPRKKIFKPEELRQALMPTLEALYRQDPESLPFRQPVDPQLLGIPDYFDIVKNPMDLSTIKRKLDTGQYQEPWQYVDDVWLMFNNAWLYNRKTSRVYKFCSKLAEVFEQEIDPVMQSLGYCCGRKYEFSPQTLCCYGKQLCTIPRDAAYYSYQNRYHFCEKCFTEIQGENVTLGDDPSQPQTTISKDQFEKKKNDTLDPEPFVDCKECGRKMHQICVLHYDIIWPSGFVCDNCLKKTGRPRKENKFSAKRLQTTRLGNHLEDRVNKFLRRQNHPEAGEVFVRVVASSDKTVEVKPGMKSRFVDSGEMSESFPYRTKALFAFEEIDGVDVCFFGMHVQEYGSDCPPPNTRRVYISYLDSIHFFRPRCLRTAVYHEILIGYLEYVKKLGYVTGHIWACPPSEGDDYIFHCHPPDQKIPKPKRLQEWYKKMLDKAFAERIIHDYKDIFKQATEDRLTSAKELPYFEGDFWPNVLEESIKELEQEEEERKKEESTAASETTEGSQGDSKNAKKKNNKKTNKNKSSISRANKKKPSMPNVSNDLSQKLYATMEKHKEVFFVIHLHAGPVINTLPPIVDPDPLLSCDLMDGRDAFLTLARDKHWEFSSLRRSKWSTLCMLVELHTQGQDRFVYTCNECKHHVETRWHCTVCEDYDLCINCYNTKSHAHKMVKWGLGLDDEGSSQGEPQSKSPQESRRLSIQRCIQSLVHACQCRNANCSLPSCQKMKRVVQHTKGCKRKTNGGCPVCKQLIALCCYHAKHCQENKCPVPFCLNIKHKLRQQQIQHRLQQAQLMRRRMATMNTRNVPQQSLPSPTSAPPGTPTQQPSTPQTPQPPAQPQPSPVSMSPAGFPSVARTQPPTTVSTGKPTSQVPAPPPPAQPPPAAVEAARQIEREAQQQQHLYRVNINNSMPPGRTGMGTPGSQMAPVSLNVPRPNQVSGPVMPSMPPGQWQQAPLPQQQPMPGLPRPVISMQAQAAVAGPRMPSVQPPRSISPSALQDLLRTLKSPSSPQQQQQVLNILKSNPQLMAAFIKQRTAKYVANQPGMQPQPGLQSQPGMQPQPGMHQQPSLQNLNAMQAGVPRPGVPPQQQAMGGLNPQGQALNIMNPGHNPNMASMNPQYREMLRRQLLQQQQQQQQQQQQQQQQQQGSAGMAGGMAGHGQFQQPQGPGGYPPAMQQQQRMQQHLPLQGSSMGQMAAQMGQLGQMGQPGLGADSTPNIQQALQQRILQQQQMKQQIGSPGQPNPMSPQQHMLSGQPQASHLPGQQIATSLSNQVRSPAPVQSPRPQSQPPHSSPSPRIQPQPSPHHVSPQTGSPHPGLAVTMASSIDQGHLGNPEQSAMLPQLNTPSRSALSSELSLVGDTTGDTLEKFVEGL

Turning to `Cc1sc2c(c1C)C(c1ccc(Cl)cc1)=N[C@@H](CC(=O)OC(C)(C)C)c1nnc(C)n1-2`, in [1], the IC50 (usually the concentration at which inhibition is half-maximal) is more than 2000 nM.

As to `COc1cc2c(cc1-c1c(C)noc1C)ncc1[nH]c(=O)n([C@H](C)c3ccccn3)c12`, the Ki (commonly the equilibrium dissociation constant of an inhibitor or competing ligand from its target) in [2] amounted to 7.2 nM; in test [8], 22.3 nM. In addition, the Kd (as a rule, the constant that tells how readily two partners part at equilibrium) in test [3] is 40.5 nM; in [4], more than 10000 nM; in test [5] it was 3080 nM; in test [6], 29.8 nM. Also, the IC50 in test [1] was more than 2000 nM; in [7], 162 nM.

As to `COc1cc2c(cc1-c1c(C)noc1C)[nH]c1ccncc12`, the 50% inhibitory concentration (IC50) amounted to 4590 nM in [9] and 2690 nM in test [10].

For the compound `COc1cc2c(cc1-c1c(C)noc1C)[nH]c1ccnc(Cl)c12`, the figures for the IC50 in test [9] and in test [10] were 862 nM and 579 nM, respectively.

Take `CCc1noc(C)c1-c1cc2[nH]c3ccnc(Cl)c3c2cc1OC`: in [9], the half-inhibitory concentration (IC50) stood at 3870 nM and the Ki amounted to 1240 nM. In test [10], this compound gave an IC50 of 1820 nM and a Ki of 478 nM.

In [9], `CCc1onc(C)c1-c1cc2[nH]c3ccnc(Cl)c3c2cc1OC` returned an IC50 of 9440 nM and a Ki of 2810 nM. In [10], this compound yielded an IC50 of 13800 nM and a Ki of 2180 nM.

Regarding `CCc1noc(CC)c1-c1cc2[nH]c3ccnc(Cl)c3c2cc1OC`, in test [9], the half-maximal inhibitory concentration (IC50) was more than 10000 nM and the Ki is more than 10000 nM. In [10], this compound yielded an IC50 of 74000 nM and a Ki of 8320 nM.

In test [9], `COc1cc2c(cc1-c1c(C)n[nH]c1C)[nH]c1ccnc(Cl)c12` showed an IC50 of 4870 nM and an inhibition constant Ki of 1730 nM. In test [10], this compound yielded an IC50 of 2580 nM and a Ki of 867 nM.

With `COc1cc2c(cc1-c1c(C)nn(C)c1C)[nH]c1ccnc(Cl)c12`, in test [9], the IC50 turned out to be 14000 nM and the Ki stood at 4840 nM. Further, in test [10], the IC50 came to 6170 nM and the Ki is 1950 nM.

Take `COc1cc2c(cc1-c1c(C)noc1C)[nH]c1ccnc(-c3c(C)noc3C)c12`: the results for the IC50 in test [9] and in [10] were 134 nM and 221 nM, respectively. For the same compound, the Ki in [9] amounted to 47.8 nM; in test [10], 70.1 nM.

For the compound `COc1cc2c(cc1-c1c(C)noc1C)[nH]c1ccnc(-c3c(C)n[nH]c3C)c12`, the IC50 is 276 nM in test [9] and 324 nM in test [10].

For `COc1cc2c(cc1-c1c(C)noc1C)[nH]c1ccnc(-c3cn[nH]c3)c12`, the IC50 in test [9] stood at 702 nM; in test [10] it was 658 nM.

In test [9], `COc1cc2c(cc1-c1c(C)noc1C)[nH]c1ccnc(-c3c(C)nn(-c4ccccc4)c3C)c12` came in with an IC50 of 301 nM and a Ki of 103 nM. In test [10], the IC50 is 316 nM and the affinity, expressed as Ki, was 98.1 nM.

Regarding `CCc1n[nH]c(CC)c1-c1nccc2[nH]c3cc(-c4c(C)noc4C)c(OC)cc3c12`, the results for the IC50 in test [1], in [9] and in test [10] were more than 2000 nM, 131 nM and 61.9 nM, respectively. Also, the inhibition constant (Ki) in [9] came to 44.1 nM; in test [11], 21 nM; in test [12], 15.4 nM; in test [10], 16.1 nM.

On to `CCNC(=O)C[C@@H]1N=C(c2ccc(Cl)cc2)c2cc(OC)ccc2-n2c(C)nnc21` [MOLIBRESIB], for which the Kd in test [4] and in test [5] was more than 10000 nM each time.
